In publication PMC8474116, “Discovery of Novel Acetamide-Based Heme Oxygenase-1 Inhibitors with Potent In Vitro Antiproliferative Activity” (Journal of Medicinal Chemistry, 2021):

Experiments:
A549 cells = assay: MTT cell viability assay, A549; format: cell-based, human; details: 48 h, 10 μM
Description: (§1) Experiments were performed on human GBM cell lines U87MG (ATCCC number #HTB-14) and A172 (ATCCC #CRL-1620) on DU145 (ATCC HTB-81) and human lung adenocarcinoma A549 (ATCC CCL-185-LUC2). All cell lines were obtained from the American Type Culture Collection (ATCC, Rockville, MD). Cells were grown in Dulbecco’s modified Eagle’s medium (DMEM) supplemented with 10% of heat-inactivated fetal bovine serum (FBS), 100 U/mL of penicillin, and 100 μg/mL of streptomycin (Sigma-Aldrich, Steinheim, Germany). Cells were incubated at 37 °C in a humidified atmosphere with 5% CO2.
(§2) The effect of selected compounds 7i and 7l–p on cell viability was assessed by performing an MTT assay. Cells were seeded into 96-well plates at a density of 7 × 10^3 cells/well in 100 μL of culture medium. After 24 h, cells were treated with selected compounds at three different concentrations (1 μM, 10 μM, and 50 μM) for 48 h. Following treatments, 0.5 mg/mL of 3-[4,5-dimethylthiazol-2-yl]-2,5-diphenyltetrazolium bromide (MTT) (Sigma-Aldrich) was added to each well and incubated for 4 h at 37 °C. Finally, dimethyl-sulfoxide (DMSO) was used to dissolve formazan salts, and absorbance was measured at 570 nm in a microplate reader (Biotek Synergy-HT). Eight replicate wells were used for each group.

DU145 cells = assay: MTT cell viability assay, DU145; format: cell-based; details: 48 h, 1 μM and 10 μM
Description: as §1, §2

HO-1 [1] = assay: HO-1 immunolocalization (immunofluorescence) in U87MG; format: cell-based, human; details: 10 μM, 48 h
Description: To determine the cellular distribution of heme oxygenase-1 in tumor cells, immunofluorescence analysis was performed as previously described.[62] Tumor cell lines were cultured on glass coverslips fixed in 4% paraformaldehyde in PBS (15′ at room temperature), permeabilized with 0.2% of Triton X100, blocked with 0.1% of BSA in PBS, and then probed with rabbit HO-1 antibody. […] DNA was counterstained stained with DAPI (#940110, Vector Laboratories). After a series of PBS and double-distilled water washes, the fixed cells were cover-slipped with the Vectashield mounting medium (Vector Laboratories, Inc., Burlingame, CA). Localization of the antibody was performed by Zeiss fluorescent microscopy.

HO-1 [2] = assay: HO-1 protein expression by Western blot, U87MG; format: cell-based, human; details: 10 μM, 48 h
Description: Proteins were extracted from total cell lysate, as previously described.[61] Briefly, cell lines were added to a buffer containing 20 mM Tris (pH 7.4), 2 mM EDTA, 0.5 mM EGTA, 50 mM mercaptoethanol, and […] sucrose supplemented with phosphatase and protease inhibitor cocktails (Roche Diagnostics, Monza, Italy). Subsequently, protein samples were sonicated twice for 20′ by using an ultrasonic probe, followed by centrifugation at 10 000g for 10 min at 4 °C. Sample proteins (30 μg) were diluted in 4X NuPage LDS sample buffer (Invitrogen, NP0007), heated at 80 °C for 5 min, and then separated on a Biorad Criterion XT 4–15% Bis–Tris gel (BIO-RAD) by electrophoresis and then transferred to a PVDF membrane (BIO-RAD). Blots were blocked using the Odyssey Blocking Buffer (LI-COR Biosciences) and probed with appropriate antibodies: HO-1 antibody (GeneTex GTX101147), goat polyclonal anti-VEGF (cat. no. sc-1836, Santa Cruz Biotechnology), and rabbit polyclonal anti-β-tubulin (cat n.sc-9104, Santa Cruz Biotechnology) and β-actin antibody (GeneTex GTX109639).
The secondary antibodies goat antirabbit (Odyssey, #926-32211; Odyssey #926-68021) and donkey antigoat IRDye 800CW (cat #926-32214; Li-Cor Biosciences) were used at 1:7000. Blots were scanned, and densitometric analysis was performed with the Odyssey Infrared Imaging System. Values were normalized to β-actin and to β-tubulin.

HO = HO enzymatic activity in U87MG cell line (cell lysate, bilirubin formation); format: cell-based, human; details: U87MG treated with 10 μM
Description: U87MG cells were incubated for 24 h in the presence or absence of 10 μM of compound 7l. Total HO activity in the cell lysate was determined by measuring the bilirubin formation using the difference in absorbance at 464–530 nm.[2] Reaction mixtures (500 μL) consisted of 20 mM of Tris–HCl, pH 7.4, 1 mg/mL of cell lysate, 0.5–2 mg/mL of biliverdin reductase, 1 mM of NADPH, 2 mM of glucose 6-phosphate (G6P), 1 U of G6P dehydrogenase, 25 μM of hemin, and 10 μL of DMSO. Incubations were carried out for 60 min at 37 °C in a circulating water bath in the dark. Reactions were stopped by adding 1 volume of chloroform. After recovering the chloroform phase, the amount of bilirubin formed was measured with a double-beam spectrophotometer as OD464–530 nm (extinction coefficient, 40 mM/cm for bilirubin). One unit of the enzyme was defined as the amount of enzyme catalyzing the formation of 1 nmol of bilirubin/mg protein/h.

[3] = Microsomal stability, human liver microsome assay (Eurofins); format: in vitro ADME; details: human liver microsomes, protein 0.1 mg/mL
Text: In vitro ADMET testing has been performed at Eurofins Scientific.

H5V cells = assay: Tube formation assay, H5V endothelial cells with U87MG conditioned medium; format: cell-based, murine; details: H5V cells with CM2, medium from U87MG cultured with 10 μM, 48 h
Description: Subconfluent U87MG cell cultures were placed in media supplemented with 1% FBS (representing the conditioned medium 1 (CM1) or control) or containing 10 μM of 7l molecule (representing the conditioned medium 2 (CM2)) and incubated at 37 °C for 48 h. Subsequently, the CMs were collected and centrifuged at 2000 rpm for 5 min, and the supernatants were frozen at −80 °C until use. GeltrexTM reduced growth factor basement membrane matrix (Invitrogen) was thawed at 4 °C overnight before use. GeltrexTM matrix was added to a 24-well plate (95 μL/well) and then incubated at 37 °C for 30 min to allow polymerization. Murine microvascular endothelial cells (H5V) were starved overnight in the growth medium, and then the cells were seeded onto the layer of GeltrexTM matrix and cultured with 200 μL of CM1 and CM2 at 37 °C for 48 h. Three randomly selected fields of view were captured with a digital camera (Canon) connected to an inverted microscope (Axio Observer A1; Carl Zeiss, Göttingen, Germany). Tube numbers per field were calculated as the percentage of control.

U87MG cells = assay: Wound-healing assay, U87MG; format: cell-based, human; details: 10 μM, vs control at 24 and 48 h
Description: U87MG cells grown to confluence in 6-well dishes (5 × 10^4 cells/well) were scratched with a 200 μL pipette tip. Cells were cultured in a 1% serum medium with or without 10 μM of 7l. Quantitative assessment of the wound area was performed under an inverted microscope, as previously described.[63] The distance that the advancing cells had moved into the wound area was measured after 24 and 48 h. The migration was calculated as the average number of cells observed in three random of high-power wounded fields/per well in duplicate wells and expressed in percentage of control (% of control).

## CN(C(=O)Cn1ccnc1)C(c1ccccc1)c1ccc(OCc2ccccc2)cc1 (stereo not shown) [7o, N-((4-(Benzyloxy)phenyl)(phenyl)methyl)-2-(1H-imidazol-1-yl)-N-methylacetamide]
A549 cells
  cell viability reduction (in words): weak effect
DU145 cells
  cell viability reduction (in words): had efficacies

## CN(C(=O)Cn1ccnc1)C(c1ccccc1)c1ccc(Cl)cc1 (stereo not shown) [7l, N-((4-Chlorophenyl)(phenyl)methyl)-2-(1H-imidazol-1-yl)-N-methylacetamide]
HO-1 [1]
  HO-1 immunoreactivity (in words): reduced the immunoreactivity of HO-1
HO-1 [2]
  HO-1 protein expression (in words): reduced HO-1 expression
HO
  HO enzymatic activity in cell lysates (in words): reduced HO activity
[3]
  microsomal CLint: 58.3 µL/min/mg
[3]; read-out: microsomal stability t1/2
  half-life: 1.98 h
H5V cells
  number of tube-like structures (in words): significantly decreased
U87MG cells
  cell motility, wound-healing assay (in words): drastically reduced

## CN(C(=O)Cn1ccnc1)C(c1ccccc1)c1ccc(I)cc1 (stereo not shown) [7n, 2-(1H-Imidazol-1-yl)-N-((4-iodophenyl)(phenyl)methyl)-N-methylacetamide]
HO-1 [2]
  HO-1 protein expression (in words): enhanced its levels
